In patent US20200038348A1, “METHODS AND MATERIALS FOR REDUCING SCAR FORMATION DURING WOUND HEALING” (Mayo Foundation for Medical Education and Research, priority 2017, published 2020):
“Also recorded” adds a separate entry of the source.

What was measured:
[1] = cited from earlier work
[2] = test system: hypertrophic scar formation; test: hypertrophic scar formation, ischemic rabbit ear model, topical treatment; assay type: in vivo
Description: Topical pentamidine was evaluated using a hypertrophic scar formation rabbit ear model. Briefly, surgical ligation of leporine auricular vessels induced an ischemic landscape for hypertrophic scar production. Specifically, a cranial artery and vein were ligated; the caudal artery and vein were preserved; and the central artery was ligated, while the central vein was preserved in the rabbit ear (FIG. 2).
All surgeries were conducted in a disinfected area designated for surgical procedures and equipped with necessary lighting and equipment. Briefly, rabbits received intramuscular buprenorphine and enrofloxicin (5-10 mg/kg) prior to the surgery. Anesthesia was induced by a mixture of ketamine and intramuscular xylazine and monitored by medical sciences support staff. Study staff performed surgeries using sterile instruments, drapes, gloves, and gown. Following vascular ligation, one linear full-thickness skin wound was created on the ventral side of each ear with a surgical blade. The skin and perichondrium were removed. The base on which granulation and epithelialization take place was the cartilage. The edges of the wound were closed with 4-0 Nylon sutures.
Following ischemic wounding, the relative ischemia created in the ear at time of surgery and time of sacrifice was assessed with a fluorescent light assisted angiography (Spy Elite, LifeCell). Perfusion of the ear was assessed using the Spy Elite system following intravenous administration of indocyanine green, which utilizes infrared light to detect the dye (FIG. 3).
Following vascular ligation and linear wounding, a sterile occlusive dressing (TegaDerm, 3M) was used to cover the wound site. Animals were allowed to recover for three days without wound disturbance. After 72 hours, the dressing was changed, and the treatment was initiated. […] Daily dressing changes occurred until day 28. About 1/8 teaspoon ([…]) of the treatment agent was applied with each dressing change. Rabbits were trained on the animal snuggler for ease during treatment application.
Animals were monitored daily for any signs of postoperative discomfort, wound infection, weight loss, loss of appetite, and loss of contracture fixation. Any complications such as cage sores, wound infections, weight loss, or wound dehiscence were reviewed with the veterinarian and managed in a way designed to minimize discomfort or suffering. […] Six rabbits were used in this study. For three rabbits, the left ear received Treatment Group 1 (n=3), and the right ear received Treatment Group 2 (n=3). […] One rabbit was excluded from the study due to wound infection:
(§1) Female New Zealand white rabbit ears were used. In total, twelve linear wounds were created using minimally invasive vascular ligation in auricular blood vessels to create ischemic hypertrophic scars. Following surgical ligation, linear wounds were treated with either osteopontin inhibitor 2% topical pentamidine (n=6; left ear) or base only (n=6; right ear) for four weeks. After the treatment period, samples were fixed in 10% formaldehyde, embedded in paraffin and stained for p16 expression.
Female New Zealand white rabbits ears were used. In total, twelve linear wounds were created using minimally invasive vascular ligation in auricular blood vessels to create ischemic hypertrophic scars. Following surgical ligation, linear wounds were treated with the following dose titration: 0.5% pentamidine (n=3); 1% pentamidine (n=3); 2% pentamidine (n=3); or 5% pentamidine (n=3). […]

WM858 Dual-Glo cells = test: in vitro cell toxicity in the SPP1 screen; assay type: cell-based; conditions: in the SPP1 promoter screen
Text: (§2) SPP1 is a pro-inflammatory inducer of skin fibrosis and skin aging. […] To screen for transcriptional silencers of SPP1 expression, cells with high endogenous SPP1 expression (e.g., melanoma cells) were identified. Then, the endogenous SPP1 promoter was tagged in melanoma cells with a dual luciferase reporter to create Dual-Glo cells using a genome editing approach. Firefly luciferase was introduced to assay SPP1 promoter activity; renilla luciferase was coupled to the CMV promoter as a loading control (FIG. 1A).

p16 = p16 expression staining in rabbit ear skin after topical treatment; assay type: in vivo; conditions: 2% topical pentamidine versus base only, four weeks, n=6 per group
Description: as §1

SPP1 promoter = test: Dual-Glo luciferase reporter screen of SPP1 promoter activity (LOPAC library); assay type: cell-based
Text: (A) Schematic representation of the DuoGlo construct used for high throughput compound screening. (B-C) SPP1 promoter activity after exposure of WM858 Dual-Glo cells to Vitamin D (B) or retinoid (C).
as §2

N=C(N)c1ccc(OCCCCCOc2ccc(C(=N)N)cc2)cc1 [Pentamidine isethionate, 4,4-[1,5-pentanediylbis(oxy)]bis-benzenecarboximidamid]
solubility in acetone ([1]; acetone): insoluble
solubility in alcohol ([1]; alcohol): soluble
solubility in chloroform ([1]; chloroform): insoluble
solubility in ether ([1]; ether): insoluble
solubility in glycerin ([1]; glycerin): soluble
solubility in water ([1]; water): soluble

N=C(N)c1ccc(OCCCCCOc2ccc(C(=N)N)cc2)cc1 [pentamidine, 4,4′-[pentane-1,5-diylbis(oxy)]dibenzenecarboximidamide]
hypertrophic scar formation ([2]; 0.5% pentamidine, n=3): no response to minimal reduction
hypertrophic scar formation ([2]; 1% pentamidine, n=3): no response to minimal reduction
hypertrophic scar formation ([2]; 2% pentamidine in Pracasil-Plus base, daily, four weeks): Minimal hypertrophic scaring; also recorded: significantly inhibited hypertrophic scar formation; also recorded: observable scar reduction
re-epithelization of the wound ([2]; 2% pentamidine, n=3): Effective re-epithelization
wound outcome at high dose ([2]; 5% pentamidine, n=3): non-healing wound and abscess formation
in vitro cell toxicity (WM858 Dual-Glo cells): minimal in vitro cell toxicity
p16 expression levels in dermal and epidermal regions (p16): decreased p16 levels; also recorded: reduced p16 expression levels
inhibition of SPP1 promoter activity (SPP1 promoter; Dual-Glo melanoma cells, firefly luciferase at the SPP1 promoter, renilla/CMV as loading control): greater than 80%

Vitamin D
effect on SPP1 promoter activity (SPP1 promoter; WM858 Dual-Glo cells): activated
